Experimental data taken from patent publication US11548870B2, “Compounds useful as inhibitors of helios protein” (Bristol-Myers Squibb Company, priority 2019, dated 2023).

Key:
[1] = biological target: T1, Ikaros (Homo sapiens, UniProt Q13422); experiment: Helios Cellular Degradation Assay, Ikaros readout (flow cytometry, Ikaros-Alexa488 antibody staining, 72 h); format: cell-based; conditions: Jurkat cells, 72 h incubation, flow cytometry; for Dmax: Jurkat, read-out: Ikaros Dmax
T1 construct: fluorescently labelled antibodies against Helios and Ikaros; endogenous in cells; host or cells: Jurkat cells
Experimental: (§1) Helios Cellular Degradation Assay
(§2) Jurkat cells were plated at 80,000 cells/well in 40 μL RPMI+10% FBS in a 384 well cell culture plate prior to using acoustic dispensing technology for adding compound of interest. Cell cultures were incubated for 72 h at 37° C. and 5% CO2. In order to facilitate analysis, cell cultures were spun down at 200 rpm for 5 min and the supernatant was discarded. After shaking the plate to dislodge the cell pellet, cells were resuspended in 50 μL of Fixation Buffer (eBioScience FoxP3 buffer set 0000) for 60 min at room temperature. After centrifuging and discarding the supernatant, cells were permeabilized with 50 μL of Permeabilization buffer (eBioScience FoxP3 buffer set 00-5523-00) for 10 min at room temperature. Following permeabilization, cells were spun down and the supernatant was replaced with 20 μL fluorescently labelled antibodies against Helios and Ikaros or corresponding Isotype controls in 1× Permeabilization buffer (Ikaros-Alexa488 [Biolegend, Cat #368408, 1:50], Helios-PE [CST, Cat #29360, 1:50]) and staining reactions were incubated for 1 h at room temperature; protected from light. Subsequently, 30 μL of 1× Permeabilization buffer was added prior to centrifuging the cells and discarding the supernatant. Stained cells were resuspended in 25 μL of flow cytometry staining buffer (PBS+0.2% BSA) and analyzed using an Intellicyt Ique Plus flow cytometer.
as §2, with “00-5523-00)” for “0000)”

[2] = biological target: T2, Helios (Homo sapiens, UniProt Q96SW2+Q9UKS7); experiment: Helios Cellular Degradation Assay (flow cytometry, Helios-PE antibody staining, 72 h); format: cell-based; conditions: Jurkat cells, 72 h incubation, flow cytometry; for Dmax: Jurkat, read-out: Helios Dmax
T2 construct: fluorescently labelled antibodies against Helios and Ikaros; endogenous in cells; host or cells: Jurkat cells
Experimental: as §1, §2
as §2, with “00-5523-00)” for “0000)”

T2 sequence (Q9UKS7 whole entry): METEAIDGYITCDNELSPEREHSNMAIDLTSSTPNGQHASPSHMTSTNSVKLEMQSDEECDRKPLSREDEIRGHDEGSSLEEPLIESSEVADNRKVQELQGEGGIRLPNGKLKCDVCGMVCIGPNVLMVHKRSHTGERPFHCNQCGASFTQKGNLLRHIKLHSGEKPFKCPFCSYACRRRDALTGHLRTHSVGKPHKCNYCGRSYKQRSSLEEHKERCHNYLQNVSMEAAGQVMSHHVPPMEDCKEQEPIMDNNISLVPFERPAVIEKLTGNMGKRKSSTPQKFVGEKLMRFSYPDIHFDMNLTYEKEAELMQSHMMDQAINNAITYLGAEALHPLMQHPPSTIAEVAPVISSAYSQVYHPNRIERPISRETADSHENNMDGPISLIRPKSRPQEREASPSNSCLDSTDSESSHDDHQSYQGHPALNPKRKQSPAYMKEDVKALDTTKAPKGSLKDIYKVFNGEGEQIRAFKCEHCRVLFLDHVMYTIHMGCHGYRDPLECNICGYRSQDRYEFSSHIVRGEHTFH
T2 sequence (Q96SW2 whole entry): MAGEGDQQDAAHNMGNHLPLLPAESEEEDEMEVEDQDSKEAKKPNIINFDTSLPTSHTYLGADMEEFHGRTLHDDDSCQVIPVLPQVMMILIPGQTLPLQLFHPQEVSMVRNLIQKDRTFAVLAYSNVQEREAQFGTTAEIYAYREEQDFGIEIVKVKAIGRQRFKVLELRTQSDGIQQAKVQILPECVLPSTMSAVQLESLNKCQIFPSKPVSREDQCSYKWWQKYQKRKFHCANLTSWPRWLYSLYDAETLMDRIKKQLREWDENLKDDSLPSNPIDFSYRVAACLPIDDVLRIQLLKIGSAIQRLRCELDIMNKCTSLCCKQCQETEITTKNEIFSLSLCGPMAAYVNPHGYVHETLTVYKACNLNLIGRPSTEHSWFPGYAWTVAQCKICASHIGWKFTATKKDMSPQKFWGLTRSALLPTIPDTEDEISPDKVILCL
T2 sequence (Q16531 whole entry partner): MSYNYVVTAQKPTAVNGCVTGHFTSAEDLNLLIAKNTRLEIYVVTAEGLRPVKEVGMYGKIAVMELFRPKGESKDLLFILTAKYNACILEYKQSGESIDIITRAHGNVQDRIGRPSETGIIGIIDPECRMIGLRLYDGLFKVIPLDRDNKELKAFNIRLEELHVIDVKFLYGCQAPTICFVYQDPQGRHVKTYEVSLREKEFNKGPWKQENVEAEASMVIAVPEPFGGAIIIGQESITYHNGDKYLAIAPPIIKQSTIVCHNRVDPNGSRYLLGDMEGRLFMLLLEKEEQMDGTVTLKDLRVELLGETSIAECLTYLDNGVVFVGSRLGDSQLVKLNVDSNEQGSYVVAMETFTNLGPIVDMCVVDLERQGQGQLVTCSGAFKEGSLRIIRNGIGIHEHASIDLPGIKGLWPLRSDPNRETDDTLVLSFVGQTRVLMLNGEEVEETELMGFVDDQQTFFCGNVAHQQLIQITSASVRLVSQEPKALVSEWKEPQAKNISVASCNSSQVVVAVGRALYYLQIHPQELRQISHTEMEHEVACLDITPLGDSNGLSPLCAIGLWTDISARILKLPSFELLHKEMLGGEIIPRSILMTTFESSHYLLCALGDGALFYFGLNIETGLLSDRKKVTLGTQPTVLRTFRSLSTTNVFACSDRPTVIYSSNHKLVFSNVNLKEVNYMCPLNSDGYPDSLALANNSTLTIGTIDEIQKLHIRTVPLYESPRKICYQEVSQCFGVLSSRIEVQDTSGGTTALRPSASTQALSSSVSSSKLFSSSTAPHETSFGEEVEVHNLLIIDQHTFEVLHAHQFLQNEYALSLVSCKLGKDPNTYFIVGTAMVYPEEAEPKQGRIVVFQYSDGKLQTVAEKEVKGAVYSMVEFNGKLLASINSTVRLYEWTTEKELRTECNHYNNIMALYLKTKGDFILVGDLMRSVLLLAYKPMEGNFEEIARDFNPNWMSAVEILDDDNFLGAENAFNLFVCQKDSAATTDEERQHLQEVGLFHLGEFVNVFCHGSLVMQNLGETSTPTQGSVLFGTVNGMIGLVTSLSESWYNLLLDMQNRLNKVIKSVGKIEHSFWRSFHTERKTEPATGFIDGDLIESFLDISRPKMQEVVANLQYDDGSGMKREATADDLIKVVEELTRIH
T1 sequence (Q96SW2 whole entry partner): as the sequence (Q96SW2 whole entry) above
T1 sequence (Q16531 whole entry partner): as the sequence (Q16531 whole entry partner) above
T1 sequence (Q13422 whole entry): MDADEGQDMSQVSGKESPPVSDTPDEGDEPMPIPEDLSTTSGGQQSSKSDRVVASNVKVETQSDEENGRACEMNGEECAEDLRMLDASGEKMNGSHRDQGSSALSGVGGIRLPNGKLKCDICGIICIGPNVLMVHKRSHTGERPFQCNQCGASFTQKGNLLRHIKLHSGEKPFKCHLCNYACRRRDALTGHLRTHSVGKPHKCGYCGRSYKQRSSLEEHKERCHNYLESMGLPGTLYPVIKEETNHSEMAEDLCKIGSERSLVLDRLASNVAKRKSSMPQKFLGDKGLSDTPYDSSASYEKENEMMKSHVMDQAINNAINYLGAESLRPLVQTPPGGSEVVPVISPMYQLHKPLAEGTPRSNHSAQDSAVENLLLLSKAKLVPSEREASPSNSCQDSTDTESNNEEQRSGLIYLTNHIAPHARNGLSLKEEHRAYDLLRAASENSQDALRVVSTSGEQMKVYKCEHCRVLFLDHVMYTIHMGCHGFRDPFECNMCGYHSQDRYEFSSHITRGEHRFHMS

Structure (SMILES)	DC50 [1]	Dmax [1]	DC50 [2]	Dmax [2]	Helios Dmax [2]	Ikaros Dmax [1]
CCN(Cc1ccncc1)Cc1ccnc(-c2ccc3c(c2)CN(C2CCC(=O)NC2=O)C3=O)c1 (stereo not shown) [Example 22, 3-(5-(4-((ethyl(pyridin-4-ylmethyl)amino)methyl)pyridin-2-yl)-1-oxoisoindolin-2-yl) piperidine-2,6-dione]	> 10 µM	33%	0.537 µM	67%		
O=C1CCC(N2Cc3cc(-c4cc(CN5CCC(N6CCCC6)CC5)ccn4)ccc3C2=O)C(=O)N1 (stereo not shown) [Example 23, 3-(1-oxo-5-(4-((4-(pyrrolidin-1-yl)piperidin-1-yl)methyl)pyridin-2-yl)isoindolin-2-yl)piperidine-2,6-dione]	> 10 µM	14%	> 10 µM	22%		
O=C1CCC(N2Cc3cc(-c4cc(CN5CCN(C(=O)c6ccco6)CC5)ccn4)ccc3C2=O)C(=O)N1 (stereo not shown) [Example 24, 3-(5-(4-((4-(furan-2-carbonyl)piperazin-1-yl)methyl)pyridin-2-yl)-1-oxoisoindolin-2-yl)piperidine-2,6-dione]	> 10 µM	11%	> 10 µM	3%		
O=C1CCC(N2Cc3cc(-c4cc(CN5CCN(c6ccncc6)CC5)ccn4)ccc3C2=O)C(=O)N1 (stereo not shown) [Example 25, 3-(1-oxo-5-(4-((4-(pyridin-4-yl)piperazin-1-yl)methyl)pyridin-2-yl)isoindolin-2-yl)piperidine-2,6-dione]	> 10 µM	0%	> 10 µM	0%		
O=C1CCC(N2Cc3cc(-c4cc(CN5CCN(c6cnccn6)CC5)ccn4)ccc3C2=O)C(=O)N1 (stereo not shown) [Example 26, 3-(1-oxo-5-(4-((4-(pyrazin-2-yl)piperazin-1-yl)methyl)pyridin-2-yl)isoindolin-2-yl)piperidine-2,6-dione]	> 10 µM	15%	> 10 µM	6%		
Cc1cccc(N2CCN(Cc3ccnc(-c4ccc5c(c4)CN(C4CCC(=O)NC4=O)C5=O)c3)CC2C)c1 (stereo not shown) [Example 27, 3-(5-(4-((3-methyl-4-(m-tolyl)piperazin-1-yl)methyl)pyridin-2-yl)-1-oxoisoindolin-2-yl)piperidine-2,6-dione]	> 10 µM	7%	> 10 µM	36%		
CC(=O)N1CCN(Cc2ccnc(-c3ccc4c(c3)CN(C3CCC(=O)NC3=O)C4=O)c2)CC1 (stereo not shown) [Example 28, 3-(5-(4-((4-acetylpiperazin-1-yl)methyl)pyridin-2-yl)-1-oxoisoindolin-2-yl)piperidine-2,6-dione]	> 10 µM	13%	> 10 µM	17%		
CN1CCC(N(C)Cc2ccnc(-c3ccc4c(c3)CN(C3CCC(=O)NC3=O)C4=O)c2)C1 (stereo not shown) [Example 29, 3-(5-(4-((methyl(1-methylpyrrolidin-3-yl)amino)methyl)pyridin-2-yl)-1-oxoisoindolin-2-yl)piperidine-2,6-dione]	> 10 µM	6%	7.51 µM		55%	
CN1CCC[C@H]1CC1CCCCN1Cc1ccnc(-c2ccc3c(c2)CN(C2CCC(=O)NC2=O)C3=O)c1 (stereo partly drawn) [Example 30, 3-(5-(4-((2-(((S)-1-methylpyrrolidin-2-yl)methyl)piperidin-1-yl)methyl)pyridin-2-yl)-1-oxoisoindolin-2-yl)piperidine-2,6-dione]	> 10 µM	-1%	> 10 µM	46%		
CC(=O)N[C@H]1CCN(Cc2ccnc(-c3ccc4c(c3)CN(C3CCC(=O)NC3=O)C4=O)c2)C1 (stereo partly drawn) [Example 31, N-((3S)-1-((2-(2-(2,6-dioxopiperidin-3-yl)-1-oxoisoindolin-5-yl)pyridin-4-yl)methyl)pyrrolidin-3-yl)acetamide]	> 10 µM	20%	0.268 µM	81%		
O=C1CCC(N2Cc3cc(-c4cc(CN5CCN(C(=O)C6CCCO6)CC5)ccn4)ccc3C2=O)C(=O)N1 (stereo not shown) [Example 32, 3-(1-oxo-5-(4-((4-(tetrahydrofuran-2-carbonyl)piperazin-1-yl)methyl)pyridin-2-yl)isoindolin-2-yl) piperidine-2,6-dione]	> 10 µM	23%	> 10 µM	35%		
CN(C)[C@H]1CCN(Cc2ccnc(-c3ccc4c(c3)CN(C3CCC(=O)NC3=O)C4=O)c2)C1 (stereo partly drawn) [Example 33, 3-(5-(4-(((S)-3-(dimethylamino)pyrrolidin-1-yl)methyl)pyridin-2-yl)-1-oxoisoindolin-2-yl)piperidine-2,6-dione]	> 10 µM	2%	> 10 µM	50%		
CN(CC(=O)N(C)C)Cc1ccnc(-c2ccc3c(c2)CN(C2CCC(=O)NC2=O)C3=O)c1 (stereo not shown) [Example 34, 2-(((2-(2-(2,6-dioxopiperidin-3-yl)-1-oxoisoindolin-5-yl)pyridin-4-yl)methyl)(methyl)amino)-N,N-dimethylacetamide]	> 10 µM	9%	> 10 µM	26%		
CN1CCN(Cc2ccnc(-c3ccc4c(c3)CN(C3CCC(=O)NC3=O)C4=O)c2)CC1 (stereo not shown) [Example 35, 3-(5-(4-((4-methylpiperazin-1-yl)methyl)pyridin-2-yl)-1-oxoisoindolin-2-yl)piperidine-2,6-dione]	> 10 µM	30%	0.869 µM	63%		
O=C1CCC(N2Cc3cc(-c4cc(CN5CCN(Cc6ccccc6)CC5)ccn4)ccc3C2=O)C(=O)N1 (stereo not shown) [Example 36]	> 10 µM		> 10 µM		11%	14%
O=C1CN(Cc2ccnc(-c3ccc4c(c3)CN(C3CCC(=O)NC3=O)C4=O)c2)CCN1 (stereo not shown) [Example 37, 3-(1-oxo-5-(4-((3-oxopiperazin-1-yl)methyl)pyridin-2-yl)isoindolin-2-yl)piperidine-2,6-dione]	> 10 µM	10%	> 10 µM	24%		
O=C1CCC(N2Cc3cc(-c4cc(CN5CCC(Cc6ccccc6)CC5)ccn4)ccc3C2=O)C(=O)N1 (stereo not shown) [Example 38, 3-(5-(4-((4-benzylpiperidin-1-yl)methyl)pyridin-2-yl)-1-oxoisoindolin-2-yl)piperidine-2,6-dione]	> 10 µM	6%	0.087 µM	68%		
O=C1CCC(N2Cc3cc(-c4cc(CN5CCc6ccccc6C5)ccn4)ccc3C2=O)C(=O)N1 (stereo not shown) [Example 39, 3-(5-(4-((3,4-dihydroisoquinolin-2(1H)-yl)methyl)pyridin-2-yl)-1-oxoisoindolin-2-yl)piperidine-2,6-dione]	> 10 µM	6%	0.444 µM	58%		
CN(C)C1CCN(Cc2ccnc(-c3ccc4c(c3)CN(C3CCC(=O)NC3=O)C4=O)c2)CC1 (stereo not shown) [Example 40, 3-(5-(4-((4-(dimethylamino)piperidin-1-yl)methyl)pyridin-2-yl)-1-oxoisoindolin-2-yl)piperidine-2,6-dione]	> 10 µM	8%	> 10 µM	9%		
NC(=O)C1CCN(Cc2ccnc(-c3ccc4c(c3)CN(C3CCC(=O)NC3=O)C4=O)c2)CC1 (stereo not shown) [Example 41, 1-((2-(2-(2,6-dioxopiperidin-3-yl)-1-oxoisoindolin-5-yl)pyridin-4-yl)methyl)piperidine-4-carboxamide]	> 10 µM	24%	0.727 µM	80%		
O=C1CCC(N2Cc3cc(-c4cc(CN5CCC(C(c6ccccc6)c6ccccc6)CC5)ccn4)ccc3C2=O)C(=O)N1 (stereo not shown) [Example 42, 3-(5-(4-((4-benzhydrylpiperidin-1-yl)methyl)pyridin-2-yl)-1-oxoisoindolin-2-yl)piperidine-2,6-dione]	> 10 µM	7%	> 10 µM	3%		
CN1CCCN(Cc2ccnc(-c3ccc4c(c3)CN(C3CCC(=O)NC3=O)C4=O)c2)CC1 (stereo not shown) [Example 43, 3-(5-(4-((4-methyl-1,4-diazepan-1-yl)methyl)pyridin-2-yl)-1-oxoisoindolin-2-yl) piperidine-2,6-dione]	> 10 µM	3%	> 10 µM	10%		
